From patent US12532884B2, “Fungicidal compositions” (SYNGENTA CROP PROTECTION AG, priority 2020, dated 2026)

Columns and labels:
[1] = system: Puccinia recondita (Brown rust); assay: Example B: comparative biological activity against Puccinia recondita (brown rust), curative, wheat leaf segments; format: in vivo; settings: 8 dpi
Method: Method; Wheat leaf segments are placed on agar in multiwell plates (24-well format). The leaf segments are inoculated with a spore suspension of the fungus and sprayed with test solutions 1 day after inoculation. After appropriate incubation the activity of a compound is assessed 8 dpi (days after inoculation) as curative fungicidal activity.
The data are presented as the percentage of disease control of each compound for the biological tests and testing rates described below in table B1.

Septoria tritici = assay: Example C2: mixtures against Septoria tritici (leaf blotch), liquid culture; format: cell-based; settings: single component; for inhibition at 0.3 ppm: read-out: Activity (%)
Excerpt: (§1) Certain mixture compositions comprising a compound of formula (I) described above may show a synergistic effect. This occurs whenever the action of an active ingredient combination is greater than the sum of the actions of the individual components. The action to be expected E for a given active ingredient combination obeys the so-called COLBY formula and can be calculated as follows (COLBY, S. R. “Calculating synergistic and antagonistic responses of herbicide combination”. Weeds, Vol. 15, pages 20-22; 1967): • ppm=milligrams of active ingredient (=a.i.) per liter of spray mixture • X=% action by active ingredient A) using p ppm of active ingredient • Y=% action by active ingredient B) using q ppm of active ingredient.
(§2) According to COLBY, the expected (additive) action of active ingredients A)+B) using p+q ppm of active ingredient is:
(§3) If the action actually observed (O) is greater than the expected action (E), then the action of the combination is super-additive, i.e. there is a synergistic effect. In mathematical terms, synergism corresponds to a positive value for the difference of (O-E). In the case of purely complementary addition of activities (expected activity), said difference (O-E) is zero. A negative value of said difference (O-E) signals a loss of activity compared to the expected activity.
(§4) Mycelia fragments or conidia suspensions of a fungus prepared either freshly from liquid cultures of the fungus or from cryogenic storage, are directly mixed into nutrient broth. DMSO solutions of the test compound (max. 10 mg/mL) are diluted with 0.025% Tween20 by a factor of 50 and 10 μl of this solution is pipetted into a microtiter plate (96-well format). The nutrient broth containing the fungal spores/mycelia fragments is then added to give an end concentration of the tested compound. The test plates are incubated in the dark at 24° C. and 96% relative humidity. The inhibition of fungal growth is determined photometrically after 2 to 7 days, depending on the pathosystem, and percent antifungal activity relative to the untreated check is calculated.
(§5) Conidia of the fungus from cryogenic storage were directly mixed into nutrient broth (PDB potato dextrose broth). A DMSO solution of the test compounds was placed into a microtiter plate (96-well format) and the nutrient broth containing the fungal spores was added to it.
(§6) The following mixture compositions at the reported concentration (in ppm) in tables C2-3 to C2-5 gave the following disease control in this test Septoria tritici (leaf blotch). Fungicidal activity was evaluated on a 100-0 scale (100=no disease growth; 0=well completely covered by mycelium).

[2] = system: Mycosphaerella arachidis syn. Cercospora arachidicola; assay: Example C1: mixtures against Mycosphaerella arachidis syn. Cercospora arachidicola (brown leaf spot), liquid culture; format: cell-based; settings: single component, 100-0 scale (100=no disease growth)
Excerpt: as §1, §2, §3, §4, §5
as §6, with “C1-3 and C1-4” for “C2-3 to C2-5”, “Mycosphaerella arachidis syn. Cercospora arachidicola (Brown leaf spot of peanut).” for “Septoria tritici (leaf blotch).”

Septoria glycines = assay: Example C3: mixtures against Septoria glycines (brown spot), liquid culture; format: cell-based; settings: single component; for inhibition at 0.1 ppm / inhibition at 0.3 ppm: read-out: Activity (%)
Excerpt: This occurs whenever the action of an active ingredient combination is greater than the sum of the actions of the individual components. The action to be expected E for a given active ingredient combination obeys the so-called COLBY formula and can be calculated as follows (COLBY, S. R. “Calculating synergistic and antagonistic responses of herbicide combination”. Weeds, Vol. 15, pages 20-22; 1967): • ppm=milligrams of active ingredient (=a.i.) per liter of spray mixture • X=% action by active ingredient A) using p ppm of active ingredient • Y=% action by active ingredient B) using q ppm of active ingredient.
as §2, §3
as §4, with “The nutrient broth containing the fungal spores/mycelia fragments is then added to give an end concentration of the tested compound.” left out
as §5, with “fungus harvested” for “fungus”, “a fresh culture grown on artificial media,” for “cryogenic storage”
Fungicidal activity was evaluated on a 100-0 scale (100=no disease growth; 0=well completely covered by mycelium).

Corynespora cassiicola = assay: Example C5: mixtures against Corynespora cassiicola (target leaf spot), liquid culture; format: cell-based; settings: Corynespora cassiicola, single component
Excerpt: as §1, §2, §3, §4
as §5, with “it. The test plates were incubated at 24 C and the inhibition of growth was determined photometrically after 3-4 days at 620 nm.” for “it.”
(§7) The following mixture compositions at the reported concentration (in ppm) in tables C4-3 and C4-4 gave the following disease control in this test (Corynespora cassiicola). Fungicidal activity was evaluated on a 100-0 scale (100=no disease growth; 0=well completely covered by mycelium).

[3] = system: Glomerella lagenarium syn. Colletotrichum lagenarium; assay: Example C4: mixtures against Glomerella lagenarium syn. Colletotrichum lagenarium (anthracnose), liquid culture; format: cell-based; settings: single component; for inhibition at 0.1 ppm / inhibition at 0.3 ppm: Colletotrichum orbiculare
Excerpt: as §1, §2, §3, §4, §5
as §7, with “(Glomerella lagenarium syn. Colletotrichum lagenarium).” for “(Corynespora cassiicola).”

Phakopsora pachyrhizi = assay: Example D: preventative activity against Phakopsora pachyrhizi on soybean (whole plants sprayed, leaf disks inoculated); format: in vivo; settings: applied alone; for inhibition at 450 g/ha / inhibition at 900 g/ha: Phakopsora pachyrhizi, foliar, read-out: Observed Activity (% of untreated)
Excerpt: as §1, §2, §3
Whole soybean plants are treated with the recited active ingredients 4 weeks after planting. 1 day after spraying leaf disks are cut from the first trifoliate leaf. Five repetitions at each rate are conducted. The leaf disks are inoculated with Phakopsora pachyrhizi (Asian soybean rust) one day after treatment. Evaluation of the leaf disks is conducted 11 to 14 days after inoculation and the activity is derived from the relation of the treated vs untreated, infested check. (100=no disease, no damage to the leaf, 0=high infestation, leaf damaged heavily). The rates of the active ingredients used are given in the tables as g active ingredient (a.i.)/ha.

[4] = 0.1 ppm, 100-0 scale (100=no disease growth)
[5] = Zymoseptoria tritici, 0.3 ppm, 100-0 scale
[6] = Septoria glycines, 0.1 ppm, 100-0 scale (100=no disease growth)
[7] = Septoria glycines, 0.3 ppm, 100-0 scale (100=no disease growth)
[8] = 0.3 ppm, 100-0 scale (100=no disease growth)

For CO/C=C(\Oc1cccc(C(C)(C)C)c1)C(=O)OC [Reference Compound Z-2, reference compound], the “control (%)” value ([1]; 20 ppm) was 0%, the “control (%)” value ([1]; 60 ppm) was 0% and the “control (%)” value ([1]; 200 ppm) was 0%.
Molecule CCC(=O)Oc1c(OC)ccnc1C(=O)N[C@@H](C)C(=O)O[C@@H](C)[C@@H](C)c1ccccc1C [[(1S,2S)-1-methyl-2-(o-tolyl)propyl] (2S)-2-[(4-methoxy-3-propanoyloxy-pyridine-2-carbonyl)amino]propanoate, reference compound] has an inhibition at 0.03 ppm (Septoria tritici; Zymoseptoria tritici, 0.03 ppm, 100-0 scale) of 50%, an inhibition at 0.06 ppm (Septoria tritici; Zymoseptoria tritici, 0.06 ppm, 100-0 scale) of 70% and an inhibition at 0.03 ppm ([2]; Mycosphaerella arachidis, 0.03 ppm) of 70%. For the same molecule, the inhibition at 0.03 ppm (Septoria glycines; Septoria glycines, 0.03 ppm) was 0%, the inhibition at 0.06 ppm (Septoria glycines; Septoria glycines, 0.06 ppm) was 0% and the inhibition at 0.03 ppm (Corynespora cassiicola; 0.03 ppm) was 0%. The inhibition at 0.06 ppm (Corynespora cassiicola; 0.06 ppm) was 0%.
For OC(Cc1ccccc1Cl)(Cn1nc[nH]c1=S)C1(Cl)CC1 (stereo not shown) [prothioconazole], the inhibition at 0.1 ppm ([3]; 0.1 ppm) was 20% and the inhibition at 0.3 ppm ([3]; 0.3 ppm) was 70%.
COc1ccnc(C(=O)N[C@H]2COC(=O)[C@H](Cc3ccccc3)[C@@H](OC(=O)C(C)C)[C@H](C)OC2=O)c1OCOC(=O)C(C)C [fenpicoxamid] was tested, and the “Activity (%)” value ([3]; 0.1 ppm) was 20% and the “Activity (%)” value ([3]; 0.3 ppm) was 70%.
For Cn1cc(C(=O)Nc2cccc3c2[C@@H]2CC[C@H]3C2=C(Cl)Cl)c(C(F)F)n1 (racemic) [benzovindiflupyr], the “Activity (%)” value (Septoria tritici; [4]) was 50%, the “Activity (%)” value (Septoria tritici; 0.3 ppm, 100-0 scale) was 70% and the “Activity (%)” value ([3]; 0.1 ppm) was 50%. The “Activity (%)” value (Septoria glycines; 0.1 ppm) was 70% and the “Activity (%)” value (Septoria glycines; [4]) was 70%.
Cc1ccc(C(=O)OCc2ccc(Oc3ccccc3)cc2)c(N)n1 [aminopyrifen] was tested, and the “Activity (%)” value ([3]; 0.1 ppm) was 20% and the “Activity (%)” value ([3]; 0.3 ppm) was 50%.
With CC(O)(Cn1cncn1)c1ccc(Oc2ccc(Br)cc2)nc1C(F)(F)F (stereo not shown) [2-[6-(4-bromophenoxy)-2-(trifluoromethyl)-3-pyridyl]-1-(1,2,4-triazol-1-yl)propan-2-ol] the inhibition at 0.3 ppm ([3]; 0.3 ppm) was 0%.
Molecule O=C1c2ccccc2C(=O)N1SC(Cl)(Cl)Cl [folpet, reference compound] has an inhibition at 450 g/ha (Phakopsora pachyrhizi; 450 g/ha) of 4%, an inhibition at 900 g/ha (Phakopsora pachyrhizi) of 13% and an inhibition at 0.3 ppm (Septoria tritici; [5]) of 20%. The inhibition at 0.3 ppm ([2]; Mycosphaerella arachidis, 0.3 ppm) was 20%, the inhibition at 0.1 ppm ([3]; 0.1 ppm) was 20% and the inhibition at 0.3 ppm ([3]; 0.3 ppm) was 70%. For the same molecule, the inhibition at 0.1 ppm (Septoria glycines; [6]) was 0% and the inhibition at 0.3 ppm (Septoria glycines; [7]) was 0%.
For N#Cc1c(Cl)c(Cl)c(Cl)c(C#N)c1Cl [chlorothalonil, reference compound], the inhibition at 450 g/ha (Phakopsora pachyrhizi; 450 g/ha) was 8%, the inhibition at 900 g/ha (Phakopsora pachyrhizi) was 7% and the inhibition at 0.1 ppm (Septoria tritici; Zymoseptoria tritici, 0.1 ppm, 100-0 scale (100=no disease growth)) was 20%. The inhibition at 0.3 ppm (Septoria tritici; [5]) was 50%, the inhibition at 0.1 ppm ([2]; Mycosphaerella arachidis, 0.1 ppm) was 20% and the inhibition at 0.1 ppm (Septoria glycines; [6]) was 0%. The inhibition at 0.3 ppm (Septoria glycines; [7]) was 20%.
With CO/C=C(\Oc1cc(C#CC2CCCCC2)ccc1C)C(=O)OC [Reference Compound Z-1, reference compound] the “control (%)” value ([1]; 20 ppm) was 0%, the “control (%)” value ([1]; 60 ppm) was 0% and the “control (%)” value ([1]; 200 ppm) was 0%.
With mancozeb [reference compound] the “Observed Activity (% of untreated)” value (Phakopsora pachyrhizi; 225 g/ha) was 27%, the “Observed Activity (% of untreated)” value (Phakopsora pachyrhizi; 450 g/ha) was 39% and the “Activity (%)” value ([2]; 0.1 ppm) was 0%. For the same molecule, the “Activity (%)” value ([2]; 0.3 ppm) was 0%, the “Activity (%)” value ([3]; 0.1 ppm) was 0% and the “Activity (%)” value ([3]; 0.3 ppm) was 20%. For the same molecule, the “Activity (%)” value (Septoria glycines; [4]) was 0% and the “Activity (%)” value (Septoria glycines; [8]) was 0%.
With CC(O)(Cn1cncn1)c1ccc(Oc2ccc(Cl)cc2)cc1C(F)(F)F (stereo not shown) [mefentrifluconazole] the “Activity (%)” value ([3]; 0.3 ppm) was 0%.
Molecule O=C(Nc1ccccc1F)c1ccc(-c2noc(C(F)(F)F)n2)cc1 [N-(2-fluorophenyl)-4-[5-(trifluoromethyl)-1,2,4-oxadiazol-3-yl]benzamide] has an inhibition at 10 ppm (Septoria tritici; Zymoseptoria tritici, 10 ppm, 100-0 scale) of 0%, an inhibition at 20 ppm (Septoria tritici; Zymoseptoria tritici, 20 ppm, 100-0 scale) of 0% and an inhibition at 10 ppm (Corynespora cassiicola; 10 ppm) of 0%. For the same molecule, the inhibition at 20 ppm (Corynespora cassiicola; 20 ppm) was 0%.
In the case of Cc1nc2c(F)c(F)ccc2cc1Oc1cccc(F)c1C(C)(C)O [ipflufenoquin, reference compound], the “Activity (%)” value (Septoria tritici; [4]) is reported as 20%, the “Activity (%)” value (Septoria tritici; 0.3 ppm, 100-0 scale) is reported as 20% and the “Activity (%)” value ([2]; 0.3 ppm) is reported as 0%. For the same molecule, the “Activity (%)” value ([3]; 0.1 ppm) was 50%, the “Activity (%)” value (Septoria glycines; 0.1 ppm) was 0% and the “Activity (%)” value (Septoria glycines; [4]) was 0%. The “Activity (%)” value (Septoria glycines; 0.3 ppm) was 20% and the “Activity (%)” value (Septoria glycines; [8]) was 20%.
